{
  "source": "paper PMC11434613",
  "about": "“The Remarkable and Selective In Vitro Cytotoxicity of Synthesized Bola-Amphiphilic Nanovesicles on Etoposide-Sensitive and -Resistant Neuroblastoma Cells” (Nanomaterials, 2024)",
  "key": {"HTLA-ER cells": {"test_system": "HTLA-ER cells", "test": "Cell viability assay (CellTiter 96 AQueous One Solution) on etoposide-resistant HTLA-ER NB cells", "assay_type": "cell-based, human", "description": "HTLA-230 human stage-IV NB cells were kindly provided by Dr. L. Raffaghello (G. Gaslini Institute, Genoa, Italy). The HTLA-ER cells were selected by treating HTLA-230 parental cells for six months with increasing concentrations of etoposide, as previously reported. Both cell populations were maintained in RPMI 1640 medium (Euroclone Spa, Pavia, Italy) supplemented with 10% fetal bovine serum (FBS, Euroclone Spa, Pavia, Italy), 1% L-glutamine (Euroclone Spa, Pavia, Italy), and 1% Penicillin/Streptomicin (Euroclone Spa, Pavia, Italy) and grown in standard conditions (37 °C humidified incubator with 5% CO2).\nTo determine the cytotoxic effects of BPPB, in vitro time- and dose-dependent experiments were carried out. Cells were first treated for 24, 48, and 72 h, with increasing concentrations (0.5–50 µM) of the compound. In a subsequent series of the experiments, cells were treated for 24, 48, and 72 h with increasing concentration of BPPB in the range of 0.1–2 µM. […] Cell cultures were carefully monitored before and during the experiments to ensure optimal cell density.\nCell viability was determined by using the CellTiter 96® AQueous One Solution Cell Proliferation Assay (Promega, Madison, WI, USA), as previously described. Briefly, cells (10,000 cells/well) were seeded into 96-well plates (Corning Incorporated, Corning, NY, USA) and then treated. Next, cells were incubated with 20 µL of CellTiter, and the absorbance at 490 nm was recorded using a microplate reader (EL-808, BIO-TEK Instruments Inc., Winooski, VT, USA). IC50 was evaluated by GraphPad Prism 5.4.2 Software (GraphPad Software, Boston, MA, USA).\nResults are expressed as the means ± S.D. of at least four independent experiments in which six different wells were analyzed every time for each experimental condition. The statistical significance of differences was determined by two-way analysis of variances (ANOVA) followed by Tukey’s multicomparison test using GraphPad Prism 8.0 (GraphPad Software v8.0, San Diego, CA, USA); p < 0.05 was considered statistically significant. Asterisks or other indicators (see Figures captions) indicate the following p-value ranges: p > 0.05 no symbols, * = p < 0.05, ** = p < 0.01, *** = p < 0.001, **** = p < 0.0001."}, "[1]": {"test": "MTT cytotoxicity assay on Cos-7 cells", "assay_type": "cell-based, African green monkey", "details": "African green monkey", "method": "(§1) To assess the cytotoxicity properties of BPPB, the MTT (3-(4,5-dimethylthiazol-2-yl)-2,5-diphenyltetrazolium bromide) cell proliferation assay (Abcam, Prodotti Gianni s.r.l., Milano, Italy, Cat#ab2011091) was performed, following the manufacturer’s protocol, as previously reported. This time, the increasing concentrations of BPPB were in the range of 0.4–85.3 µM. The cell survival rate, expressed as cell viability percentage (%), was evaluated based on the experimental outputs of treated groups vs. the untreated groups (CTR) and was calculated as follows: cell viability (%) = (OD treated cells − OD blank)/(OD untreated cells − OD blank) × 100%.\n(§2) In this study, the cytotoxicity profile of BPPB was assessed in both immortalized human liver cells (HepG2) cells, as in our previous works, and in transformed African green monkey kidney fibroblast cells (Cos-7), as reported in a recent paper. Specifically, we evaluated the cytotoxicity of BPPB by carrying out both the MTT proliferation assay and the lactate dehydrogenase (LHD) cytotoxicity assay, which measures the LDH activity as an indicator of cell death. Both cell lines were exposed for 24 h to increasing concentrations of BPPB (0.4–85.3 µM). Growth inhibition/death were determined by the MTT test, while cell cytotoxicity was determined by LDH assay, with respect to untreated control cells. Results are reported as bar graphs in Figure 8 and as dispersion graphs in Figures S13 and S14 in Supplementary Materials (Section S2)."}, "Cos-7 cells": {"test_system": "Cos-7 cells", "test": "MTT cytotoxicity assay on Cos-7 cells", "assay_type": "cell-based, African green monkey", "details": "for IC50: MTT, concentration range 0.4–85.3 µM", "method": "as §1, §2"}},
  "data": [
    {"smiles": "c1ccc([P+](CCCCCCCCCCCC[P+](c2ccccc2)(c2ccccc2)c2ccccc2)(c2ccccc2)c2ccccc2)cc1", "note": "[BPPB, 1,1-(1,12-dodecanediyl)bis [1,1, 1]-triphenylphosphonium di-bromide]", "values": [
      {"measurement": "Cell viability HTLA-ER", "setting": "HTLA-ER cells; 0.5 µM, 24 h, series 0.5–50 µM", "result": "not significantly different from that of controls"},
      {"measurement": "Fold lower IC50 on HTLA-ER than that of ETO", "setting": "HTLA-ER cells; 24 h, ETO IC50 592 µM from ref 58", "result": 538, "unit": "fold"},
      {"measurement": "Cell viability HTLA-ER", "setting": "HTLA-ER cells; 24 h, concentration at which hemolysis was inexistent (concentration not stated)", "result": 14.3, "unit": "%"},
      {"measurement": "IC50", "setting": "HTLA-ER cells; 24 h exposure, refined concentration range 0.1–2 µM", "result": 1.11, "unit": "µM"},
      {"measurement": "IC50", "setting": "HTLA-ER cells; 48 h exposure, refined concentration range 0.1–2 µM", "result": "0.93 ± 0.0956", "unit": "µM"},
      {"measurement": "IC50", "setting": "HTLA-ER cells; 72 h exposure, refined concentration range 0.1–2 µM", "result": "0.833 ± 0.0685", "unit": "µM"},
      {"measurement": "IC50", "setting": "HTLA-ER cells; Homo sapiens, 24 h, 24 h exposure, concentration range 0.5–50 µM", "result": "1.85 ± 0.392", "unit": "µM"},
      {"measurement": "IC50", "setting": "HTLA-ER cells; Homo sapiens, 24 h, 24 h exposure, refined concentration range 0.1–2 µM", "result": 1.1, "unit": "µM"},
      {"measurement": "IC50", "setting": "HTLA-ER cells; Homo sapiens, 48 h, 48 h exposure, concentration range 0.5–50 µM", "result": "0.732 ± 0.159", "unit": "µM"},
      {"measurement": "IC50", "setting": "HTLA-ER cells; Homo sapiens, 48 h, 48 h exposure, refined concentration range 0.1–2 µM", "result": 0.9, "unit": "µM"},
      {"measurement": "IC50", "setting": "HTLA-ER cells; Homo sapiens, 72 h, 72 h exposure, concentration range 0.5–50 µM", "result": "0.892 ± 0.167", "unit": "µM"},
      {"measurement": "IC50", "setting": "HTLA-ER cells; Homo sapiens, 72 h, 72 h exposure, refined concentration range 0.1–2 µM", "result": 0.8, "unit": "µM"},
      {"measurement": "IC50", "setting": "HTLA-ER cells; Homo sapiens, 72 h, over 24, 48, 72 h, range 0.1–2 µM", "result": "0.8 to 1.1", "unit": "µM"},
      {"measurement": "viability at 0.5 µM", "setting": "HTLA-ER cells; Homo sapiens, 0.5 µM, 48 h, series 0.5–50 µM", "result": 54.1, "unit": "%"},
      {"measurement": "viability at 0.5 µM", "setting": "HTLA-ER cells; Homo sapiens, 0.5 µM, 72 h, series 0.5–50 µM", "result": 62, "unit": "%"},
      {"measurement": "Cell viability HTLA-ER (plateau)", "setting": "HTLA-ER cells; concentrations above 5–10 µM up to 50 µM, all exposure times", "result": "7–8%"},
      {"measurement": "viability at 24 h, 4.3 µM", "setting": "[1]; Cos-7 cells, 4.3 µM, read-out: Cell viability Cos-7 (MTT)", "result": 64.2, "unit": "%"},
      {"measurement": "viability at 24 h, 8.5 µM", "setting": "[1]; Cos-7 cells, 8.5 µM, read-out: Cell viability Cos-7 (MTT)", "result": 27.4, "unit": "%"},
      {"measurement": "selectivity ratio at 24 h", "setting": "[1]; read-out: Selectivity index (SI) = IC50 Cos-7 / IC50 HTLA-ER", "result": 4.42},
      {"measurement": "Selectivity index (SI) = IC50 Cos-7 / IC50 HTLA-230", "setting": "Cos-7 cells; 24 h", "result": 20.72},
      {"measurement": "IC50", "setting": "Cos-7 cells; 24 h", "result": "4.91 ± 0.81", "unit": "µM"},
      {"measurement": "IC50", "setting": "Cos-7 cells; Chlorocebus sabaeus, COS-7, 24 h", "result": 4.9, "unit": "µM"},
      {"measurement": "Concentrations with a safety profile toward Cos-7", "setting": "Cos-7 cells; MTT test, 24 h", "result": "≤ 4.3", "unit": "µM"}
    ]}
  ]
}
